Data as given in patent US20040097463A1, “Use of asiatic acid or asiaticoside for treatment of cancer” (priority 2000, published 2004).
Where two headings read alike, the source gives them in different places.

Columns and labels:
[1] = MTT dye reduction cytotoxicity test, OKF6; format: cell-based; details: human
Experimental: (§1) Taxol is a commercially available chemotherapeutic predominantly used in the treatment of breast cancer, lung cancer and ovarian cancer. The experiments were performed on human foreskin fibroblast cells as well as established tumor cell lines. The percentage cytotoxicity was measured by the MTT dye reduction test, which requires the NADPH dehydrogenase enzyme of the mitochondria in live cells (1).

[2] = system: Squamous carcinoma cells of SCC15; experiment: MTT dye reduction cytotoxicity test, SCC15; format: cell-based; details: for cytotoxicity at 2.5 µg/mL / cytotoxicity at 5 µg/mL / cytotoxicity at 10 µg/mL / cytotoxicity at 20 µg/mL / cytotoxicity at 25 µg/mL: Homo sapiens
Experimental: as §1

[3] = system: HeLa cells; experiment: Apoptosis by DAPI staining of the nuclei in HeLa cells; format: cell-based; details: cytotoxic concentrations
Experimental: HeLa cells were treated with asiatic acid at cytotoxic concentrations and apoptosis of the cells was measured by DAPI staining of the nuclei (2).

[4] = system: Squamous carcinoma cells of SCC4; experiment: MTT dye reduction cytotoxicity test, SCC4; format: cell-based; details: Homo sapiens
Experimental: as §1

[5] = system: New Born Foreskin Fibroblast cells; experiment: MTT dye reduction cytotoxicity test, new born foreskin fibroblast cells; format: cell-based, human
Experimental: as §1

[6] = as above; format: cell-based, human; details: human
Experimental: as §1

[7] = system: SK-BR3 breast cancer cell line; experiment: MTT dye reduction cytotoxicity test, SK-BR3; format: cell-based; details: Homo sapiens
Experimental: as §1

[8] = MTT dye reduction cytotoxicity test, OKF6; format: cell-based; details: human, OKF6 cells (SV40-transformed normal epithelial cell line)

SMILES: C[C@H]1[C@H](C)CC[C@]2(C(=O)O)CC[C@]3(C)C(=CC[C@@H]4[C@@]5(C)C[C@@H](O)[C@H](O)[C@@](C)(CO)[C@@H]5CC[C@]43C)[C@H]12 [Asiatic Acid, asiatic acid]
- cytotoxicity at 2.5 μg/ml [1]: 5%
- cytotoxicity at 5 μg/ml [1]: 23%
- cytotoxicity at 10 μg/ml [1]: 88%
- cytotoxicity at 20 μg/ml [1]: 92%
- cytotoxicity at 25 μg/ml [1]: 92%
- cytotoxicity to squamous carcinoma cells compared with solid tumor cell line [2]: more potent cytotoxicity
- cytotoxicity at 2.5 µg/mL ([2]; SCC-15, read-out: % cytotox): 16%
- cytotoxicity at 5 µg/mL ([2]; SCC-15, read-out: % cytotox): 20%
- cytotoxicity at 10 µg/mL ([2]; SCC-15, read-out: % cytotox): 88%
- cytotoxicity at 20 µg/mL ([2]; SCC-15, read-out: % cytotox): 86%
- cytotoxicity at 25 µg/mL ([2]; SCC-15, read-out: % cytotox): 90%
- apoptosis of the cells measured by DAPI staining of the nuclei [3]: inducing apoptotic cell death
- cytotoxicity at 5 µg/mL ([4]; SCC-4, read-out: % cytotox): 75%
- cytotoxicity at 10 µg/mL ([4]; SCC-4, read-out: % cytotox): 75%
- cytotoxicity at 20 µg/mL ([4]; SCC-4, read-out: % cytotox): 80%
- cytotoxicity at 40 µg/mL ([4]; SCC-4, read-out: % cytotox): 70%
- cytotoxicity at 50 µg/mL ([4]; SCC-4, read-out: % cytotox): 75%
- cytotoxic effect on human foreskin fibroblast cells in culture [5]: dose-dependent
- cytotoxicity at 0.8 μg/ml [6]: 30%
- cytotoxicity at 6.25 μg/ml [6]: 30%
- cytotoxicity at 12.5 μg/ml [6]: 80%
- cytotoxicity at 25 μg/ml [6]: 84%
- cytotoxicity at 0.8 µg/mL ([7]; SK-BR-3, read-out: % cytotox): 0%
- cytotoxicity at 6.2 µg/mL ([7]; SK-BR-3, read-out: % cytotox): 0%
- cytotoxicity at 12.5 µg/mL ([7]; SK-BR-3, read-out: % cytotox): 23%
- cytotoxicity at 25 µg/mL ([7]; SK-BR-3, read-out: % cytotox): 80%

SMILES: CC(=O)O[C@H]1C(=O)[C@@]2(C)[C@H]([C@H](OC(=O)c3ccccc3)[C@]3(O)C[C@H](OC(=O)[C@H](O)[C@@H](NC(=O)c4ccccc4)c4ccccc4)C(C)=C1C3(C)C)[C@]1(OC(C)=O)CO[C@@H]1C[C@@H]2O [Taxol, reference compound]
- cytotoxicity at 2.5 µg/mL ([2]; SCC-15, SCC15, 2.5 μg/ml, read-out: % cytotox): 3%
- cytotoxicity at 5 µg/mL ([2]; SCC-15, SCC15, 5 μg/ml, read-out: % cytotox): 0%
- cytotoxicity at 10 µg/mL ([2]; SCC-15, SCC15, 10 μg/ml, read-out: % cytotox): 0%
- cytotoxicity at 20 µg/mL ([2]; SCC-15, SCC15, 20 μg/ml, read-out: % cytotox): 8%
- cytotoxicity at 25 µg/mL ([2]; SCC-15, SCC15, 25 μg/ml, read-out: % cytotox): 23%
- cytotoxicity at 5 µg/mL ([4]; SCC-4, SCC4, 5 μg/ml, read-out: % cytotox): 52%
- cytotoxicity at 10 µg/mL ([4]; SCC-4, SCC4, 10 μg/ml, read-out: % cytotox): 60%
- cytotoxicity at 20 µg/mL ([4]; SCC-4, SCC4, 20 μg/ml, read-out: % cytotox): 60%
- cytotoxicity at 40 µg/mL ([4]; SCC-4, SCC4, 40 μg/ml, read-out: % cytotox): 60%
- cytotoxicity at 50 µg/mL ([4]; SCC-4, SCC4, 50 μg/ml, read-out: % cytotox): 40%
- cytotoxicity at 0.8 μg/ml ([6]; New Born Foreskin Fibroblast cells, 0.8 μg/ml, read-out: % cytotox): 40%
- cytotoxicity at 6.25 μg/ml ([6]; New Born Foreskin Fibroblast cells, 6.25 μg/ml, read-out: % cytotox): 40%
- cytotoxicity at 12.5 μg/ml ([6]; New Born Foreskin Fibroblast cells, 12.5 μg/ml, read-out: % cytotox): 50%
- cytotoxicity at 25 μg/ml ([6]; New Born Foreskin Fibroblast cells, 25 μg/ml, read-out: % cytotox): 55%
- cytotoxicity at 0.8 µg/mL ([7]; SK-BR-3, SK-BR3, 0.8 μg/ml, read-out: % cytotox): 40%
- cytotoxicity at 6.2 µg/mL ([7]; SK-BR-3, SK-BR3, 6.2 μg/ml, read-out: % cytotox): 50%
- cytotoxicity at 12.5 µg/mL ([7]; SK-BR-3, SK-BR3, 12.5 μg/ml, read-out: % cytotox): 40%
- cytotoxicity at 25 µg/mL ([7]; SK-BR-3, SK-BR3, 25 μg/ml, read-out: % cytotox): 50%
- cytotoxicity at 2.5 μg/ml ([8]; OKF6, 2.5 μg/ml): 26%
- cytotoxicity at 5 μg/ml ([8]; OKF6, 5 μg/ml): 41%
- cytotoxicity at 10 μg/ml ([8]; OKF6, 10 μg/ml): 54%
- cytotoxicity at 20 μg/ml ([8]; OKF6, 20 μg/ml): 48%
- cytotoxicity at 25 μg/ml ([8]; OKF6, 25 μg/ml): 75%
